How the values were obtained:
[1] = target: T1, Type-2 angiotensin II receptor (Rattus norvegicus, UniProt P35351)
T1 sequence (P35351 whole entry): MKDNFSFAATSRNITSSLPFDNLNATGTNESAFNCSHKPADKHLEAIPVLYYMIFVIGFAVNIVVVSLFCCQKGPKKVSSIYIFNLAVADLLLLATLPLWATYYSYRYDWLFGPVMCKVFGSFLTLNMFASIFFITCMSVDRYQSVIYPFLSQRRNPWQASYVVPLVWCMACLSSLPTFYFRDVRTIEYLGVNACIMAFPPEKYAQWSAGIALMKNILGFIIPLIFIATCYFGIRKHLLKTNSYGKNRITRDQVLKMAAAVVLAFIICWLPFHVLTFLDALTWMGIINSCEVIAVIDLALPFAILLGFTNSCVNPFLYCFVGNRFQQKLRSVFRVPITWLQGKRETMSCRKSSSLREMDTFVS

[2] = target: T2, Type-1 angiotensin II receptor A (Rattus norvegicus, UniProt P25095)
T2 sequence (P25095 whole entry): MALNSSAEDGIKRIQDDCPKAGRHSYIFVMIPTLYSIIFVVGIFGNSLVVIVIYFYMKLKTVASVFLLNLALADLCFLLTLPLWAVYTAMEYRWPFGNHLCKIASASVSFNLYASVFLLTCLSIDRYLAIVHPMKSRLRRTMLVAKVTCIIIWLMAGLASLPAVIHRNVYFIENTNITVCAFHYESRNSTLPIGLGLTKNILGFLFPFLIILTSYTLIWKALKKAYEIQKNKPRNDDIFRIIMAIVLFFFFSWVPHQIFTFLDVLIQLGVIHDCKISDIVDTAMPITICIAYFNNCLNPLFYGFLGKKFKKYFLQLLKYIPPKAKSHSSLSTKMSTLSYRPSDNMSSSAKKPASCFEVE

CCCCc1ncc(/C=C(\Cc2cccs2)C(=O)O)n1Cc1ccc(C(=O)O)cc1 [(E)-3-[2-n-butyl-1-{(4-carboxyphenyl)methyl}-1H-imidazol-5-yl]-2-(2-thienyl)methyl-2-propenoic acid]
Ki [1]: > 10 µM

CCc1nc2c(C)cc(C)nc2n1-c1ccc(-c2ccccc2-c2nnn[nH]2)cc1 [CAS_123856]
Ki [1]: > 10 µM
Ki [2]: 0.0007 µM

CCCc1nc(-n2cccc2C(=O)C(F)(F)F)c(C(=O)O)n1Cc1ccc(-c2ccccc2-c2nn[nH]n2)cc1
Ki [1]: > 10 µM
